Laboratory results published in US11365215B2, “Method for preventing, improving, or treating inflammatory bowel disease” (Research & Business Foundation Sungkyunkwan University, priority 2015, dated 2022).
Peptide text beside a SMILES is read from it.

Columns and labels:
Assay type in all cases: cell-based
NF-κB = experiment: 5×NF-κB-Luc reporter luciferase assay in LPS-treated RAW 264.7 cells
Method: Specifically, 5×NF-κB-Luc reporter plasmid was transfected into RAW 264.7 cells using Effectene (Qiagen, USA). The transfected cells were pretreated with 100 nM of compound 1.1 (SEQ ID NO: 2) for 30 minutes, and further treated with LPS (100 ng/ml) for two hours, and luciferase activity in the cells was measured (FIG. 4 depicts a graph showing relative inhibition activities of compound 1.1 (SEQ ID NO: 2) and compound 1.2 to NF-κB activation). When the cells were treated with compound 1.1 (SEQ ID NO: 2) and compound 1.2 according to the present invention, activation of NF-κB, which was induced by LPS, was inhibited (FIG. 4).
In addition, 5×NF-κB-Luc reporter plasmid was transfected into RAW 264.7 macrophage cells and treated with compounds of the present invention, as described above. After 24 hours of the transfection, the cells were pretreated with DMSO (control), compound 1.1 (SEQ ID NO: 2), reference compound 1 (SEQ ID NO: 16) (compound where palmitic acid is removed from compound 1.1 (SEQ ID NO: 2)), and smaducin-6 were treated at various concentrations of 100 pM, 1 nM, and 100 nM for 30 minutes, and then the cells were treated with 100 ng/ml of LPS for two hours.
Specifically, 5×NF-κB-Luc reporter plasmid, SBE-Luc reporter plasmid, and BRE-Luc reporter plasmid were individually transfected into Raw 264.7 macrophage cells. After 24 hours, the cells transfected with the NF-κB-Luc reporter plasmid were treated with 100 ng/mL of LPS, the cells transfected with the SBE-Luc reporter plasmid were treated with 5 ng/mL of TFG-β1, and the cells transfected with the BRE-Luc reporter plasmid were treated with 100 ng/mL of BMP6 for two hours.
As described in Example 2.3, 5×NF-κB-Luc reporter plasmid was transfected into RAW 246.7 macrophage cells. After 24 hours, the cells transfected with NF-κB-Luc reporter plasmid were pretreated with compound 1.1 (SEQ ID NO: 2) (100 nM), interleukin-1-receptor-associated-kinase-1/4 inhibitor (IRAK1/4) inhibitor (25 μM, CAS 509093-47-4), and smaducin-6 (100 nM) for 30 minutes, and then further treated with LPS (100 ng/ml) for 2 hours. Subsequently, luciferase activities in the cells were measured.

AP-1 = experiment: AP-1-Luc reporter luciferase assay in LPS-treated RAW 246.7 cells; conditions: 25 μM for 30 minutes, LPS 100 ng/ml 2 hours
Method: RAW 246.7 macrophage cells were transfected with AP-1-Luc reporter plasmid as described in Example 2.3. After 24 hours, the transfected cells with AP-1-Luc reporter plasmid were pretreated with compound 1.1 (SEQ ID NO: 2) (100 nM), IRAK1/4 inhibitor (25 μM), and smaducin-6 (100 nM) for 30 minutes, and then further treated with LPS (100 ng/ml) for 2 hours.

[1] = tested on: MAPK signaling pathway proteins (ERK1/2, JNK, p38); experiment: Western blot of MAPK signaling pathway protein phosphorylation in LPS-treated RAW 246.7 cells; conditions: for phosphorylation of the MAPK signaling pathway proteins (ERK1/2, JNK, p38): 100 nM for 30 minutes, LPS 0, 0.5, 1 and 2 hours
Method: RAW 246.7 macrophage cells were pretreated with compound 1.1 (SEQ ID NO: 2), compound 1.2 and reference compound 1 (SEQ ID NO: 16) at a concentration of 100 nM for 30 minutes and then further treated with LPS for 0 hour, 0.5 hour, 1 hour and 2 hours. […] Changes of the concentration upon phosphorylation of each protein were measured by immunoblotting using anti-phosphorylation antibodies.
Specifically, RAW 246.7 macrophage cells were pretreated with DMSO, compound 1.1 (SEQ ID NO: 2) (100 nM), IRAK1/4 inhibitor (25 μM), and smaducin-6 (100 nM) for 30 minutes, and then further treated with LPS (100 ng/ml) for two hours.

[2] = tested on: inflammatory signaling pathway protein complex mediated by MyD88 or RIP1; experiment: Immunoprecipitation of inflammatory signaling pathway protein complex in LPS-treated RAW264.7 cells; conditions: pretreated, then LPS
Text: Specifically, using antibodies corresponding to proteins which relate to the formation of Toll-like receptors (TLRs) signaling pathway protein complex (for example, IRAK1, TRAF6, MyD88, RIP1 and Pellino-1), disruption of the formation of inflammatory signaling pathway protein complexes was affirmed by immunoprecipitation. As reference control, a relative amount of expression of β-actin from the total cell lysate was compared and presented using Western blot.
RAW264.7 macrophage cells were individually retreated with compound 1.1 (SEQ ID NO: 2) and compound 1.2, and smaducin-6, and further treated with LPS. These RAW264.7 macrophage cells were collected, lysed in a lysis butter (PBS containing 0.5% Triton X-100, 20 mM HEPES (pH 7.4), 150 mM NaCl, 12.5 mM β-glycerol phosphate, 1.5 mM MgCl2, 10 mM NaF, 2 mM DTT, 1 mM Na3O4V, 2 mM EGTA, and 1 mM Protease Inhibitor (PMSF)), and centrifuged at 13000 rpm for 10 minutes. For immunoprecipitation assays, the supernatant was incubated at 4° C. for 12 hours, with protein-A agarose beads and the antibodies corresponding to the above proteins, and the beads were subsequently washed three times with the lysis buffer. The immunoprecipitated substances were dissociated from the beads with addition of 2× sample buffer, and were boiled. The prepared samples were loaded on SDS-polyacrylamide gel (FIG. 7).

interleukin-6 = experiment: Suppression of LPS-induced IL-6 expression in RAW 264.7 macrophage cells (RT-PCR, Real-Time PCR); conditions: pretreated 100 nM for 30 min, LPS two hours, compared to untreated sample
Method: First, RAW 264.7 macrophage cells were purchased from American Type Culture Collection (ATCC; Manassas, Va.), and were culture at a temperature of 37° C., under 5% CO2 atmosphere, using 10% Fetal Bovine Serum (FBS) and Dulbecco's Modified Eagle's Medium (DMEM) containing 1% penicillin/streptomycin.
The cultured RAW 264.7 macrophage cells were divided into a 6-well cell culture plate. After 24 hours, the cells were pretreated with compound 1.1 (SEQ ID NO: 2), compound 1.2, and smaducin-6, respectively, in a concentration of 100 nM for 30 min, and further treated with lipopolysaccharides (LPS) for two hours. These cells were collected using TRIzol® and the RNA was extracted. From 2 μg of the extracted RNA, cDNAs (complementary deoxyribonucleic acids) were synthesized and reverse transcription polymerase chain reactions (RT-PCR) and real-time polymerase chain reactions (Real-Time PCR) were performed. Samples from the RT-PCR were confirmed by electrophoresis on agarose gels and quantified using densitometer. A glyceraldehyde 3-phosphate dehydrogenase (GAPDH) gene was used as a loading control for the interleukin-6 gene.
RAW 264.7 macrophage cells were treated with varying concentrations of compound 1.1 (SEQ ID NO: 2) from 50 pM to 500 nM for 30 minutes, and treated with 100 ng/mL of LPS for two hours.

[3] = target: T1, inflammatory signaling pathway complex mediated by MyD88 and RIP1 (Mus musculus, UniProt P22366+Q60855); experiment: Immunoprecipitation/immunoblot of inflammatory signaling pathway complex in LPS-treated BMDM cells; conditions: 100 pM, 1 nM, 100 nM, then 100 ng/mL LPS
T1 construct: endogenous in cells; host or cells: bone-marrow-derived macrophage (BMDM) cells
T1 sequence (P22366 whole entry): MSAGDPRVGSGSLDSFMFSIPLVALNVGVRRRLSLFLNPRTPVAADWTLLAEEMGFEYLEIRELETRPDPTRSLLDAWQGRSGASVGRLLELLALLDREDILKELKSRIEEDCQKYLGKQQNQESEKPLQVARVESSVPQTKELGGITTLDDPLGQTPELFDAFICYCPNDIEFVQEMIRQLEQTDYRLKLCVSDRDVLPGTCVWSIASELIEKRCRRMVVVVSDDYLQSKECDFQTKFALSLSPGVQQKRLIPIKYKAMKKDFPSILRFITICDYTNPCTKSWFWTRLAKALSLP
T1 sequence (Q60855 whole entry): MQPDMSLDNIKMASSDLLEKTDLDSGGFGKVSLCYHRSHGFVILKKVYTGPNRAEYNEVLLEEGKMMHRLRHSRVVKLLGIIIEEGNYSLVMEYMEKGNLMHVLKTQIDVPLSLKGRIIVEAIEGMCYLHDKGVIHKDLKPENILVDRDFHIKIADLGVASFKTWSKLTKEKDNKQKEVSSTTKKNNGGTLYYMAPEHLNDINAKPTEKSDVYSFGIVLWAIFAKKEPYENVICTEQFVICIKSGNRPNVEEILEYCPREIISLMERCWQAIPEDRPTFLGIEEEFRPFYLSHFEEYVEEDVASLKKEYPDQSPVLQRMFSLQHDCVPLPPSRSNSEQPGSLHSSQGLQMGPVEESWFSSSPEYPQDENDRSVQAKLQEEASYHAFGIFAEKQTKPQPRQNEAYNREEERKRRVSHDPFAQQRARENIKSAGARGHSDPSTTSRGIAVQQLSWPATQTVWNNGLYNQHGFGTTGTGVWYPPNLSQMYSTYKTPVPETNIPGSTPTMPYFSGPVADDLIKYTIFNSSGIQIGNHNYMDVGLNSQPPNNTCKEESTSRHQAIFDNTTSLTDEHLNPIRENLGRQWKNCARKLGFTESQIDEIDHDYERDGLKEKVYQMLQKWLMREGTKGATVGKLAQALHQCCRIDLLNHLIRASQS
Method: Bone-marrow-derived macrophage (BMDM) cells were individually pretreated with compound 1.1 (SEQ ID NO: 2), reference compound 1 (SEQ ID NO: 16), and smaducin-6 at various concentrations of 100 pM, 1 nM, and 100 nM, and then further treated with 100 ng/mL of LPS.

Compound | NF-κB activation (luciferase activity) (NF-κB; 25 μM for 30 minutes, LPS 100 ng/ml 2 hours) | AP-1-Luc luciferase activity (MAPK signaling pathway) (AP-1) | MAPK signaling pathway / phosphorylation of ERK, JNK, p38 ([1]; 25 μM for 30 minutes, LPS 100 ng/ml two hours) | formation of inflammatory signaling pathway protein complex mediated by MyD88 or RIP1 [2] | activation of NF-κB induced by LPS (luciferase activity) (NF-κB; 100 nM for 30 minutes, LPS 100 ng/ml two hours) | expression of interleukin-6 induced by LPS treatment (interleukin-6) | phosphorylation of the MAPK signaling pathway proteins (ERK1/2, JNK, p38) [1] | formation of inflammatory signaling pathway complex mediated by MyD88 and RIP1 [3] | inhibition of the activity of NF-κB induced by LPS, dose dependence (NF-κB; 100 pM, 1 nM, 100 nM for 30 minutes, LPS 100 ng/ml two hours)
O=C(Nc1nc2ccccc2n1CCN1CCOCC1)c1cccc([N+](=O)[O-])c1 [IRAK1/4 inhibitor, reference compound] | inhibited | inhibited MAPK signaling pathway | suppressed at least one or more of MAPK signaling pathways | – | – | – | – | – | –
CCCCCCCCCCCCCCCC(=O)N1CCC[C@H]1C(=O)NCC(=O)N[C@@H](Cc1ccc(O)cc1)C(=O)O [compound 1.2, (S)-3-(4-hydroxyphenyl)-2-(2-((S)-1-palmitoylpyrrolidine-2-carboxamido)acetamido)propanoic acid] (HELM PEPTIDE1{[CCCCCCCCCCCCCCCC(=O)[*:2]].P.G.Y}$$$$V2.0) | – | – | – | disrupted | inhibited | suppressed | did not inhibit phosphorylation | – | –
reference compound 1: compound where palmitic acid is removed from compound 1.1 (SEQ ID NO: 2) (PPGY) [reference compound] | – | – | – | – | – | – | did not inhibit phosphorylation | formed the inflammatory signaling pathway complex | not inhibited in dose dependent manner
